Values after ≈ are worked out from the molar mass of the structure shown.
How the values were obtained:
Type in all cases: functional
[1] = tested on: Staphylococcus aureus; test: Antibacterial activity against Staphylococcus aureus ATCC 29213 measured after 16 hrs by broth microdilution method
[2] = tested on: Micrococcus luteus; test: Antibacterial activity against Micrococcus luteus SCSIO ML01 measured after 16 hrs by broth microdilution method
[3] = tested on: Klebsiella pneumoniae; test: Antibacterial activity against Klebsiella pneumoniae ATCC 13883 measured after 16 hrs by broth microdilution method
[4] = tested on: Acinetobacter baumannii; test: Antibacterial activity against Acinetobacter baumannii ATCC 19606 measured after 16 hrs by broth microdilution method
[5] = tested on: Vibrio alginolyticus; test: Antibacterial activity against Vibrio alginolyticus 13214 measured after 16 hrs by broth microdilution method

Row | Structure (SMILES) | MIC [1] [mg/L] | MIC [2] [mg/L] | MIC [3] [mg/L] | MIC [4] [mg/L] | MIC [5] [mg/L]
1 | CC(=O)c1c(O)cc2c3c(cccc13)C=C([C@H](O)[C@H](C)O)O2 | > 64 | > 64 | > 64 | > 64 | > 64
2 | COc1cc(Cc2cnc(N)nc2N)cc(OC)c1OC [TRIMETHOPRIM] | 2 (≈ 6.89 µM) | 2 (≈ 6.89 µM) | 0.125 (≈ 0.431 µM) | 0.125 (≈ 0.431 µM) | 0.125 (≈ 0.431 µM)
3 | CC(=O)c1c(O)cc2c3c(cccc13)C=C(C)O2 | > 64 | 64 (≈ 266 µM) | > 64 | > 64 | 64 (≈ 266 µM)
4 | CC(=O)c1c(O)cc2c3c(cccc13)C=C(C=O)O2 | > 64 | 32 (≈ 126 µM) | 32 (≈ 126 µM) | > 64 | 32 (≈ 126 µM)
5 | CC(=O)c1c(O)cc2c3c(cccc13)C=C([C@@H](O)[C@H](C)O)O2 | > 64 | > 64 | > 64 | > 64 | > 64
6 | CC(=O)c1c(O)cc2c3c(cccc13)C=C([C@@H](O)[C@@H](C)O)O2 | > 64 | > 64 | > 64 | > 64 | > 64

Further lines, results first:

Row | MIC [1] [mg/L] | MIC [2] [mg/L] | MIC [3] [mg/L] | MIC [4] [mg/L] | MIC [5] [mg/L] | Structure (SMILES)
7 | > 64 | > 64 | 16 (≈ 53.3 µM) | 32 (≈ 107 µM) | 64 (≈ 213 µM) | CC(=O)c1c(O)cc2c3c(cccc13)C=C([C@H](O)[C@@H](C)O)O2
8 | 8 (≈ 31.2 µM) | 8 (≈ 31.2 µM) | 64 (≈ 250 µM) | 64 (≈ 250 µM) | > 64 | CC(=O)c1c(O)cc2c3c(cccc13)C=C(CO)O2
9 | 8 (≈ 28.3 µM) | 8 (≈ 28.3 µM) | 8 (≈ 28.3 µM) | > 64 | 32 (≈ 113 µM) | CC(=O)CC1=Cc2cccc3c(C(C)=O)c(O)cc(c23)O1

From ChEMBL document CHEMBL5257052, “Aromatic Polyketides from the Mangrove-Derived Streptomyces sp. SCSIO 40069” (2023)
